Columns and labels:
Assay in all cases: relative viability (nuclei count vs DMSO), 5 days (fraction); higher = more cells survive
NCI-H2085 = system: NCI-H2085
How it was run: (§1)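 After 5 days of treatment, lung cancer cells in 1536-well plates were fixed and stained in a single step (final 0.05% Triton X-100, 1% formaldehyde, 1 ug/ml Hoechst) and their nuclei counted on 4× images. Treatment had been applied by pin tool the day after seeding as one drug alone or as a fixed anchor-drug dose with five library-drug doses (not always all listed) in √10 steps. Relative viability is the nuclei count of treated wells divided by that of vehicle wells, and values are medians of duplicate plates.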

NCI-H1651 = system: NCI-H1651
How it was run: as §1

HCC-366 = system: HCC-366
How it was run: as §1

NCI-H1650 = system: NCI-H1650
How it was run: as §1

COR-L23 = system: COR-L23
How it was run: as §1

LU99A = system: LU99A
How it was run: as §1

NCI-H322M = system: NCI-H322M
How it was run: as §1

HCC-78 = system: HCC-78
How it was run: as §1

HARA = system: HARA
How it was run: as §1

NCI-H460 = system: NCI-H460
How it was run: as §1

NCI-H1793 = system: NCI-H1793
How it was run: as §1

NCI-H2087 = system: NCI-H2087
How it was run: as §1

201T = system: 201T
How it was run: as §1

NCI-H1755 = system: NCI-H1755
How it was run: as §1

NCI-H3122 = system: NCI-H3122
How it was run: as §1

SK-LU-1 = system: SK-LU-1
How it was run: as §1

NCI-H23 = system: NCI-H23
How it was run: as §1

H3255 = system: H3255
How it was run: as §1

PC-3 [JPC-3] = system: PC-3 [JPC-3]
How it was run: as §1

NCI-H596 = system: NCI-H596
How it was run: as §1

Compound: Cc1csc(=NC2CCCCC2)n1/N=C/c1ccc(O)c(O)c1O [MIM1] + CC1(C)CCC(c2ccc(Cl)cc2)=C(CN2CCN(c3ccc(C(=O)NS(=O)(=O)c4ccc(N[C@H](CCN5CCOCC5)CSc5ccccc5)c(S(=O)(=O)C(F)(F)F)c4)cc3)CC2)C1 [Navitoclax] (partner 0.5 µM)
- relative viability (NCI-H2085; first compound 0.2 µM): 1.17
- relative viability (NCI-H2085; first compound 0.6325 µM): 1.08
- relative viability (NCI-H2085; first compound 2 µM): 1.12
- relative viability (NCI-H2085; first compound 6.325 µM): 1.02
- relative viability (NCI-H2085; first compound 20 µM): 1.01
- relative viability (NCI-H1651; first compound 0.2 µM): 1.09
- relative viability (NCI-H1651; first compound 0.6325 µM): 1.1
- relative viability (NCI-H1651; first compound 2 µM): 1.03
- relative viability (NCI-H1651; first compound 6.325 µM): 0.875
- relative viability (NCI-H1651; first compound 20 µM): 0.869
- relative viability (HCC-366; first compound 0.2 µM): 1.06
- relative viability (HCC-366; first compound 0.6325 µM): 0.943
- relative viability (HCC-366; first compound 2 µM): 0.809
- relative viability (HCC-366; first compound 6.325 µM): 1
- relative viability (HCC-366; first compound 20 µM): 0.0645
- relative viability (NCI-H1650; first compound 0.2 µM): 1.13
- relative viability (NCI-H1650; first compound 0.6325 µM): 1.18
- relative viability (NCI-H1650; first compound 2 µM): 0.693
- relative viability (NCI-H1650; first compound 6.325 µM): 0.452
- relative viability (NCI-H1650; first compound 20 µM): 0.202
- relative viability (COR-L23; first compound 0.2 µM): 0.966
- relative viability (COR-L23; first compound 0.6325 µM): 1.08
- relative viability (COR-L23; first compound 2 µM): 0.997
- relative viability (COR-L23; first compound 6.325 µM): 0.774
- relative viability (COR-L23; first compound 20 µM): 0.515
- relative viability (LU99A; first compound 0.2 µM): 0.931
- relative viability (LU99A; first compound 0.6325 µM): 0.817
- relative viability (LU99A; first compound 2 µM): 0.781
- relative viability (LU99A; first compound 6.325 µM): 0.836
- relative viability (LU99A; first compound 20 µM): 0.18
- relative viability (NCI-H322M; first compound 0.2 µM): 1.13
- relative viability (NCI-H322M; first compound 0.6325 µM): 1.29
- relative viability (NCI-H322M; first compound 2 µM): 1.31
- relative viability (NCI-H322M; first compound 6.325 µM): 1.13
- relative viability (NCI-H322M; first compound 20 µM): 1.37
- relative viability (HCC-78; first compound 0.2 µM): 0.899
- relative viability (HCC-78; first compound 0.6325 µM): 0.731
- relative viability (HCC-78; first compound 2 µM): 0.668
- relative viability (HCC-78; first compound 6.325 µM): 0.562
- relative viability (HCC-78; first compound 20 µM): 0.739
- relative viability (HARA; first compound 0.2 µM): 1.13
- relative viability (HARA; first compound 0.6325 µM): 1.15
- relative viability (HARA; first compound 2 µM): 1.19
- relative viability (HARA; first compound 6.325 µM): 1.13
- relative viability (HARA; first compound 20 µM): 0.23
- relative viability (NCI-H460; first compound 0.2 µM): 1.16
- relative viability (NCI-H460; first compound 0.6325 µM): 1.14
- relative viability (NCI-H460; first compound 2 µM): 0.772
- relative viability (NCI-H460; first compound 6.325 µM): 0.416
- relative viability (NCI-H460; first compound 20 µM): 0.0332
- relative viability (NCI-H1793; first compound 0.2 µM): 0.438
- relative viability (NCI-H1793; first compound 0.6325 µM): 0.546
- relative viability (NCI-H1793; first compound 2 µM): 0.436
- relative viability (NCI-H1793; first compound 6.325 µM): 0.475
- relative viability (NCI-H1793; first compound 20 µM): 0.47
- relative viability (NCI-H2087; first compound 0.2 µM): 1.05
- relative viability (NCI-H2087; first compound 0.6325 µM): 0.921
- relative viability (NCI-H2087; first compound 2 µM): 1.03
- relative viability (NCI-H2087; first compound 6.325 µM): 0.928
- relative viability (NCI-H2087; first compound 20 µM): 0.382
- relative viability (201T; first compound 0.2 µM): 1.2
- relative viability (201T; first compound 0.6325 µM): 1.21
- relative viability (201T; first compound 2 µM): 1.24
- relative viability (201T; first compound 6.325 µM): 1.19
- relative viability (201T; first compound 20 µM): 1.26
- relative viability (NCI-H1755; first compound 0.2 µM): 1.01
- relative viability (NCI-H1755; first compound 0.6325 µM): 0.995
- relative viability (NCI-H1755; first compound 2 µM): 1.03
- relative viability (NCI-H1755; first compound 6.325 µM): 0.703
- relative viability (NCI-H1755; first compound 20 µM): 0.557
- relative viability (NCI-H3122; first compound 0.2 µM): 1.06
- relative viability (NCI-H3122; first compound 0.6325 µM): 1.09
- relative viability (NCI-H3122; first compound 2 µM): 1.1
- relative viability (NCI-H3122; first compound 6.325 µM): 0.761
- relative viability (NCI-H3122; first compound 20 µM): 0.426
- relative viability (SK-LU-1; first compound 0.2 µM): 0.708
- relative viability (SK-LU-1; first compound 0.6325 µM): 0.78
- relative viability (SK-LU-1; first compound 2 µM): 0.957
- relative viability (SK-LU-1; first compound 6.325 µM): 0.824
- relative viability (SK-LU-1; first compound 20 µM): 0.841
- relative viability (NCI-H23; first compound 0.2 µM): 0.631
- relative viability (NCI-H23; first compound 2 µM): 0.632
- relative viability (NCI-H23; first compound 6.325 µM): 0.934
- relative viability (NCI-H23; first compound 20 µM): 0.242
- relative viability (H3255; first compound 0.2 µM): 0.561
- relative viability (H3255; first compound 0.6325 µM): 0.557
- relative viability (H3255; first compound 2 µM): 0.467
- relative viability (H3255; first compound 6.325 µM): 0.413
- relative viability (H3255; first compound 20 µM): 0.198
- relative viability (PC-3 [JPC-3]; first compound 0.2 µM): 0.821
- relative viability (PC-3 [JPC-3]; first compound 0.6325 µM): 0.682
- relative viability (PC-3 [JPC-3]; first compound 2 µM): 0.897
- relative viability (PC-3 [JPC-3]; first compound 6.325 µM): 0.696
- relative viability (PC-3 [JPC-3]; first compound 20 µM): 0.531
- relative viability (NCI-H596; first compound 0.2 µM): 0.935
- relative viability (NCI-H596; first compound 0.6325 µM): 0.921
- relative viability (NCI-H596; first compound 2 µM): 0.895
- relative viability (NCI-H596; first compound 6.325 µM): 0.806
- relative viability (NCI-H596; first compound 20 µM): 0.7
